Test results from US11484561B2, “Morus extracts rich in N-acids of imino sugars and or pipecolic acids” (Phynova Limited, priority 2011, dated 2022).

Assays:
Assay type in all cases: biochemical
[1] = system: naringinase (P. decumbens); assay: Glycosidase assay, naringinase (P. decumbens); conditions: Table 16; % inhibition; concentration not given
Method: (§1) The assays used p-nitrophenyl-substrates and commercial enzymes purchased from Sigma-Aldrich. Enzymes were assayed at 27° C. in 0.1M citric acid/0.2M disodium hydrogen phosphate buffers at the optimum pH for the enzyme. The incubation mixture consisted of 10 μl enzyme solution, 10 μl of 10 mg/ml aqueous solution of extract and 50 μl of the appropriate 5 mM p-nitrophenyl substrate made up in buffer at the optimum pH for the enzyme. The reactions were stopped by addition of 70 μl 0.4M glycine (pH 10.4) during the exponential phase of the reaction, which had been determined at the beginning using uninhibited assays in which water replaced mulberry fractions. Final absorbances were read at 405 nm using a Versamax microplate reader (Molecular Devices). Assays were carried out in triplicate, and the values given are means of the three replicates per assay. Results are expressed as % inhibition.
(§2) Substrates are 10 mM p-nitrophenyl-glycopyranosides. Enzymes are purchased from Sigma and run at the pH optima

[2] = system: β-D-mannosidase Cellulomonas fimi; assay: Glycosidase assay, β-D-mannosidase (Cellulomonas fimi); conditions: Table 16; % inhibition; concentration not given
Method: as §1

[3] = target: T1, α-D-galactosidase (green coffee bean) (Coffea arabica, UniProt Q42656); assay: Glycosidase assay, α-D-galactosidase (green coffee bean); conditions: Table 16; % inhibition; concentration not given
T1 construct: purchased Sigma-Aldrich
Method: as §1, §2

α-D-glucosidase (Yeast) = target: T2, α-D-glucosidase (Yeast) (Saccharomyces cerevisiae, UniProt P53341); assay: Glycosidase assay, α-D-glucosidase (Yeast); conditions: Table 16; % inhibition; concentration not given
T2 construct: purchased Sigma-Aldrich
Method: as §1, §2

[4] = target: T3, β-glucuronidase (bovine liver) (Bos taurus, UniProt A3KMY8); assay: Glycosidase assay, β-glucuronidase (bovine liver); conditions: read-out: IC50 against bovine liver β-glucuronidase
T3 construct: purchased Sigma-Aldrich; host or cells: bovine liver
T3 sequence (A3KMY8 1-652): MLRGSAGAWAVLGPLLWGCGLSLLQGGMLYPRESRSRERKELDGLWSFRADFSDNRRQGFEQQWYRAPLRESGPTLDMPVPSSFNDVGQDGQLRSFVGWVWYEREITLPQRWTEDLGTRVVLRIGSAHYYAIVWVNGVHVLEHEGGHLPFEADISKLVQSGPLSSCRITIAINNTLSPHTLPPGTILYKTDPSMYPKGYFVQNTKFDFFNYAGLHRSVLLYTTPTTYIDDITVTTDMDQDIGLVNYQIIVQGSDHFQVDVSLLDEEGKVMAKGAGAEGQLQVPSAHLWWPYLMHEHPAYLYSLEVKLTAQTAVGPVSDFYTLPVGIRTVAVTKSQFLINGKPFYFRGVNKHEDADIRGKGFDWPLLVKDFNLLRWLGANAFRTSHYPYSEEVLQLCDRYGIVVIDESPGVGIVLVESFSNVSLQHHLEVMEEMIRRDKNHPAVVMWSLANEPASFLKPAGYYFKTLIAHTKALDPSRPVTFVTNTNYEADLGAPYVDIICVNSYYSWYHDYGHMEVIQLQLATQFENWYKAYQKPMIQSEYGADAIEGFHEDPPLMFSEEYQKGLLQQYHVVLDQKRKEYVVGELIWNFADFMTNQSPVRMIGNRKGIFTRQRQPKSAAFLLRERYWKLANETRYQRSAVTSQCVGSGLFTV
Method: as §1, §2

α-D-glucosidase (rice) = target: T4, α-D-glucosidase (rice) (Oryza sativa subsp. japonica, UniProt Q653V7); assay: Glycosidase assay, α-D-glucosidase (rice); conditions: Table 16; % inhibition; concentration not given
T4 construct: purchased Sigma-Aldrich
Method: as §1, §2

[5] = target: T5, human recombinant α-L-iduronidase (Homo sapiens, UniProt P35475); assay: α-L-iduronidase inhibition
T5 sequence (P35475 28-653): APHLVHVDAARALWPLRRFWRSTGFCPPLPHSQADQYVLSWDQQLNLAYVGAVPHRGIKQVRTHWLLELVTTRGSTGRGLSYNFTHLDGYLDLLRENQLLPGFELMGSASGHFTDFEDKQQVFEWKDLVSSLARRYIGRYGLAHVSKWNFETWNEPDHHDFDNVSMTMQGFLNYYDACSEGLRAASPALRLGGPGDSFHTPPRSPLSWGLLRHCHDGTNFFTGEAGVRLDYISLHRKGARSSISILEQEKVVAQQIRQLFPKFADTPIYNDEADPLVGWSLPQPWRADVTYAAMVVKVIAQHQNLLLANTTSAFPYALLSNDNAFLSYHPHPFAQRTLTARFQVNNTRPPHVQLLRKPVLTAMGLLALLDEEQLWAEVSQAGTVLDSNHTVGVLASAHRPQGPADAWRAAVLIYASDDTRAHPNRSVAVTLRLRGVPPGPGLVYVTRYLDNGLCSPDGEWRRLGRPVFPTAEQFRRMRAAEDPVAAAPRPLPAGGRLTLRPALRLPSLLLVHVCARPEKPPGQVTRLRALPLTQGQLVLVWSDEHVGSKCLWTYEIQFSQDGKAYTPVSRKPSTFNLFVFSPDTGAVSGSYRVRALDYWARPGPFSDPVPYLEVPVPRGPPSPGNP

[6] = target: T6, amyloglucosidase (A. niger) (Aspergillus niger, UniProt P69328); assay: Glycosidase assay, amyloglucosidase (A. niger); conditions: Table 16; % inhibition; concentration not given
T6 construct: purchased Sigma-Aldrich
Method: as §1, §2

β-D-glucosidase (yeast) = assay: Glycosidase assay, β-D-glucosidase (yeast); conditions: Table 16; % inhibition; concentration not given
Method: as §1

α-L-fucosidase (bovine) = target: T7, α-L-fucosidase (bovine) (Bos taurus, UniProt Q2KIM0); assay: Glycosidase assay, α-L-fucosidase (bovine); conditions: Table 16; % inhibition; concentration not given
T7 construct: purchased Sigma-Aldrich
T7 sequence (Q2KIM0 23-468): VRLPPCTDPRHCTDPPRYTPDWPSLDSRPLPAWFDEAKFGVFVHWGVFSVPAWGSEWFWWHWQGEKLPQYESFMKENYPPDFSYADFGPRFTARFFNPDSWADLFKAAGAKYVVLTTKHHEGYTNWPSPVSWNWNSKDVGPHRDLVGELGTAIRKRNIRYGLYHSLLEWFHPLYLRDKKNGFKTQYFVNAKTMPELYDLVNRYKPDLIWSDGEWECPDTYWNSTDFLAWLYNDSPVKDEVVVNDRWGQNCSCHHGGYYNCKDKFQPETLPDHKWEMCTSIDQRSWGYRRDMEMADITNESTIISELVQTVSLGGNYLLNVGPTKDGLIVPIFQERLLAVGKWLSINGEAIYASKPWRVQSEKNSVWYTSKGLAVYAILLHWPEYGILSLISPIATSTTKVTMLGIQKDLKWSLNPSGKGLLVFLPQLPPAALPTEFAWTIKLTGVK
Method: as §1

T2 sequence (P53341 whole entry): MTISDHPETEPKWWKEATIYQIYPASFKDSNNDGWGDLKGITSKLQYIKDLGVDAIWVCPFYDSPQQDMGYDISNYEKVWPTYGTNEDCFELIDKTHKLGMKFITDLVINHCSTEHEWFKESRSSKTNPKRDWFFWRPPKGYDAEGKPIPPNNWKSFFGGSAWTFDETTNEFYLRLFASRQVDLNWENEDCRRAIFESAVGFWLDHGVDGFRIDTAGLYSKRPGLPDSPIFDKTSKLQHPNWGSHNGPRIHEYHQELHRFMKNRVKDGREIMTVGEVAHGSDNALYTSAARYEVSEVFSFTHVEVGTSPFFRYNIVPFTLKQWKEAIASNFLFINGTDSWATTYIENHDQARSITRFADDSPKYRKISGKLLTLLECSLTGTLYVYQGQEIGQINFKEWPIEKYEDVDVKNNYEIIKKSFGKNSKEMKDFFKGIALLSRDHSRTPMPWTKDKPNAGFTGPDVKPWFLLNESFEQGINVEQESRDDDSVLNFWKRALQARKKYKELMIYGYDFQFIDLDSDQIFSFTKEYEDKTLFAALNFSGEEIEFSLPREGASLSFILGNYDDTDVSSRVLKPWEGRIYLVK
T6 sequence (P69328 25-640): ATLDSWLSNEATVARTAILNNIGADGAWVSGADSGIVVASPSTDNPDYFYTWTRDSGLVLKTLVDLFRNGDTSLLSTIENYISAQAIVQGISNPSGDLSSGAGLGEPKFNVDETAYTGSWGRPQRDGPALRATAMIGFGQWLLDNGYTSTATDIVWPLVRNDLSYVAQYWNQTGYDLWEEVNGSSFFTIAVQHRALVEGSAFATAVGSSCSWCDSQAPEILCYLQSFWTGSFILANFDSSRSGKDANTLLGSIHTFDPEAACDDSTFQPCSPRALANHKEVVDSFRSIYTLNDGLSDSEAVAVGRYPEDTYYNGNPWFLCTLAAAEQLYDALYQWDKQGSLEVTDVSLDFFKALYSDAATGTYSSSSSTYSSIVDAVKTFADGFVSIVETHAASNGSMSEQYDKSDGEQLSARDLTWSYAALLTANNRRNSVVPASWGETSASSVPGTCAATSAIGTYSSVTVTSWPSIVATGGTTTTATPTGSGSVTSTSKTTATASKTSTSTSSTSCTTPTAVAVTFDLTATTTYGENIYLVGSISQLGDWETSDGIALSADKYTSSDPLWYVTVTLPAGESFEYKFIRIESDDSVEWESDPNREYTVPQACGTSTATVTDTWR
T1 sequence (Q42656 16-378): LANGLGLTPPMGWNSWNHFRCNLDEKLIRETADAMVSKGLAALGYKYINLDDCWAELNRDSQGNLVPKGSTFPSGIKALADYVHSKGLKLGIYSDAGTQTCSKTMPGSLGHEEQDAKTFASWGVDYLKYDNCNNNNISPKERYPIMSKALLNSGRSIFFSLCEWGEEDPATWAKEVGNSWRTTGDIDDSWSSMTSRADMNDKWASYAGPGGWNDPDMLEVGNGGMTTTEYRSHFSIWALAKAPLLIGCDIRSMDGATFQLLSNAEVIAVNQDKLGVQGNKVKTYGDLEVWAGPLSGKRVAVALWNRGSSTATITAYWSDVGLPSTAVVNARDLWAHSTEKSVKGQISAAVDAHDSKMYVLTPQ
T4 sequence (Q653V7 34-885): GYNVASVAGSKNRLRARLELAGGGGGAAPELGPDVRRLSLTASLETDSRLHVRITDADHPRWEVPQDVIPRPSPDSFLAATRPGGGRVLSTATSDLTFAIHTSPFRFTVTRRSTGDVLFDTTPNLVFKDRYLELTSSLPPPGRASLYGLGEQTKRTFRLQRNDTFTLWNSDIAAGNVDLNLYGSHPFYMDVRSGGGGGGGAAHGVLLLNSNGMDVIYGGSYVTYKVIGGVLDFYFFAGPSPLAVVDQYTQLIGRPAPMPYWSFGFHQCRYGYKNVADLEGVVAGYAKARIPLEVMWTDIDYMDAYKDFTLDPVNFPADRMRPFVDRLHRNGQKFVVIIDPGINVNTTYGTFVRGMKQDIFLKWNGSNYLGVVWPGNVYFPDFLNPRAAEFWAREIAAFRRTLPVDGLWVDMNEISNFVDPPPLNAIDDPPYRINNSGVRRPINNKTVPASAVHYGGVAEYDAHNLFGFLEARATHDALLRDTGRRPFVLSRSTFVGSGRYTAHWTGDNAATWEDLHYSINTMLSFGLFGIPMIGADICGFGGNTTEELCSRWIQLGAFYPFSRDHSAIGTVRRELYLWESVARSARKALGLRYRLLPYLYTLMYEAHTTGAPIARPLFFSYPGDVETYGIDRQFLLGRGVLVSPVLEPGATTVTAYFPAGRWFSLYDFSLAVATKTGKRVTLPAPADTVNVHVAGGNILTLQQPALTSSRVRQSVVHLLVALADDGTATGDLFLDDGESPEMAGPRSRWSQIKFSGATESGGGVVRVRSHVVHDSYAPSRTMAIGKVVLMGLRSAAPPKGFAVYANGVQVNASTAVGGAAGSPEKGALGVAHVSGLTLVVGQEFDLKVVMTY

Row | Compound | Naringinase (P. decumbens) [1] [%] | β-D-mannosidase (C. fimi) [2] [%] | α-D-galactosidase (Green coffee beans) [3] [%] | α-D-glucosidase (Yeast) (α-D-glucosidase (Yeast)) [%] | IC50 [4] [µM] | α-D-glucosidase (Rice) (α-D-glucosidase (rice)) [%] | IC50 [5] [µM] | Amyloglucosidase [6] [%] | β-D-glucosidase (yeast) (β-D-glucosidase (yeast)) [%] | α-L-fucosidase (Bovine) (α-L-fucosidase (bovine)) [%] | inhibition of the iduronidase, in words ([5]; at 0.8 mM)
1 | O=C(O)CN1C[C@@H](O)[C@H](O)[C@H]1CO [DAB-N-ethanoic, DAB-N-ethanoic acid] | 0 | −5 | −5 | 10.7 | 523 | 42 | 196 | −2 | 7 | 3 | –
2 | OC[C@H]1NC[C@H](O)[C@@H](O)[C@@H]1O [DNJ, 1 deoxynojirmycin] | 21 | −19 | −3 | 36 | – | 100 | – | 32 | 64 | 6 | –
3 | O=C(O)CN1C[C@H](O)[C@@H](O)[C@H](O)[C@H]1CO [DNJ-N-ethanoic, DNJ-ethanoic acid] | 0 | −10 | −8 | 2.5 | 208 | 100 | – | 0 | 14 | 5 | only weakly inhibits
4 | O=C(O)CCN1C[C@H](O)[C@@H](O)[C@H](O)[C@H]1CO [DNJ-N-propanoic, DNJ-N-propanoic acid] | 4 | −5 | 15 | 0.0 | 340 | 100 | 383 | 53 | 32 | 11 | –
